Columns and labels:
Assay type in all cases: in vivo
[1] = test system: nutsedge, yellow (yellow nutsedge, Cyperus esculentus); test: Test E pre-/postemergence: nutsedge, yellow; details: Preemergence, scale 0 to 100
How it was run: (§1)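 Scores reflect greenhouse visual evaluation after 14–21 days, 0 meaning no effect and 100 complete control relative to untreated plants, for pre- and postemergence (1–4 leaf) applications.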

[2] = test system: arrowleaf sida (Sida rhombifolia); test: Test E pre-/postemergence: arrowleaf sida; details: scale 0 to 100
How it was run: as §1

[3] = test system: surinam grass (Brachiaria decumbens); test: Test E pre-/postemergence: surinam grass; details: Preemergence, scale 0 to 100
How it was run: as §1

[4] = test system: soybean (Glycine max); test: Test E pre-/postemergence: soybean; details: scale 0 to 100
How it was run: as §1

[5] = test system: morningglory (Ipomoea coccinea); test: Test E pre-/postemergence: morningglory; details: Preemergence, scale 0 to 100
How it was run: as §1

[6] = test system: ryegrass, Italian (Italian ryegrass, Lolium multiflorum); test: Test E pre-/postemergence: ryegrass, Italian; details: scale 0 to 100
How it was run: as §1

[7] = test system: ragweed (common ragweed, Ambrosia elation); test: Test E pre-/postemergence: ragweed; details: Preemergence, scale 0 to 100
How it was run: as §1

[8] = test system: cocklebur (common cocklebur, Xanthium strumarium); test: Test E pre-/postemergence: cocklebur; details: Preemergence, scale 0 to 100
How it was run: as §1

[9] = test system: dayflower, (VA) (Virginia dayflower, Commelina virginica); test: Test E pre-/postemergence: dayflower, (VA); details: scale 0 to 100
How it was run: as §1

[10] = test system: velvetleaf (Abutilon theophrasti); test: Test E pre-/postemergence: velvetleaf; details: Preemergence, scale 0 to 100
How it was run: as §1

For `Cc1nn(-c2ccc(C(F)(F)F)cc2)nc1Oc1ccnc(C(F)(F)F)c1` [Compound 120], which “Plant response rating: Nutsedge, Yellow” value ([1]; 16 g ai/ha) is on record?
Its value is 0.

And the “Plant response rating: Nutsedge, Yellow” value ([1]; 31 g ai/ha)?
The value was 0.

And the “Plant response rating: Nutsedge, Yellow” value ([1]; 62 g ai/ha)?
Its value is 0.

What about the “Plant response rating: Nutsedge, Yellow” value ([1]; 125 g ai/ha) of the same molecule?
The value was 15.

And the “Plant response rating: Nutsedge, Yellow” value ([1]; 250 g ai/ha)?
The value was 25.

And the “Plant response rating: Arrowleaf Sida” value ([2]; Postemergence, 8 g ai/ha)?
Its value is 30.

And the “Plant response rating: Arrowleaf Sida” value ([2]; Postemergence, 16 g ai/ha)?
The value was 40.

And the “Plant response rating: Arrowleaf Sida” value ([2]; Postemergence, 31 g ai/ha)?
The value was 40.

What about the “Plant response rating: Arrowleaf Sida” value ([2]; Postemergence, 62 g ai/ha) of the same molecule?
Its value is 50.

And the “Plant response rating: Arrowleaf Sida” value ([2]; Postemergence, 125 g ai/ha)?
The value was 50.

And the “Plant response rating: Arrowleaf Sida” value ([2]; Preemergence, 16 g ai/ha)?
Its value is 0.

What about the “Plant response rating: Arrowleaf Sida” value ([2]; Preemergence, 31 g ai/ha) of the same molecule?
Its value is 0.

What about the “Plant response rating: Arrowleaf Sida” value ([2]; Preemergence, 62 g ai/ha) of the same molecule?
Its value is 0.

What about the “Plant response rating: Arrowleaf Sida” value ([2]; Preemergence, 125 g ai/ha) of the same molecule?
Its value is 15.

What about the “Plant response rating: Arrowleaf Sida” value ([2]; Preemergence, 250 g ai/ha) of the same molecule?
Its value is 50.

What about the “Plant response rating: Surinam Grass” value ([3]; 16 g ai/ha) of the same molecule?
Its value is 0.

And the “Plant response rating: Surinam Grass” value ([3]; 31 g ai/ha)?
The value was 35.

What about the “Plant response rating: Surinam Grass” value ([3]; 62 g ai/ha) of the same molecule?
The value was 35.

And the “Plant response rating: Surinam Grass” value ([3]; 125 g ai/ha)?
Its value is 90.

And the “Plant response rating: Surinam Grass” value ([3]; 250 g ai/ha)?
Its value is 100.

What about the “Plant response rating: Soybean” value ([4]; Postemergence, 8 g ai/ha) of the same molecule?
The value was 15.

And the “Plant response rating: Soybean” value ([4]; Postemergence, 16 g ai/ha)?
The value was 20.

What about the “Plant response rating: Soybean” value ([4]; Postemergence, 31 g ai/ha) of the same molecule?
Its value is 30.

What about the “Plant response rating: Soybean” value ([4]; Postemergence, 62 g ai/ha) of the same molecule?
Its value is 40.

And the “Plant response rating: Soybean” value ([4]; Postemergence, 125 g ai/ha)?
Its value is 50.

And the “Plant response rating: Soybean” value ([4]; Preemergence, 16 g ai/ha)?
The value was 0.

And the “Plant response rating: Soybean” value ([4]; Preemergence, 31 g ai/ha)?
Its value is 25.

What about the “Plant response rating: Soybean” value ([4]; Preemergence, 62 g ai/ha) of the same molecule?
Its value is 35.

What about the “Plant response rating: Soybean” value ([4]; Preemergence, 125 g ai/ha) of the same molecule?
The value was 35.

What about the “Plant response rating: Soybean” value ([4]; Preemergence, 250 g ai/ha) of the same molecule?
The value was 35.

What about the “Plant response rating: Morningglory” value ([5]; 16 g ai/ha) of the same molecule?
The value was 0.

And the “Plant response rating: Morningglory” value ([5]; 31 g ai/ha)?
Its value is 30.

And the “Plant response rating: Morningglory” value ([5]; 62 g ai/ha)?
The value was 35.

What about the “Plant response rating: Morningglory” value ([5]; 125 g ai/ha) of the same molecule?
Its value is 60.

And the “Plant response rating: Morningglory” value ([5]; 250 g ai/ha)?
The value was 60.

And the “Plant response rating: Ryegrass, Italian” value ([6]; Postemergence, 8 g ai/ha)?
Its value is 0.

And the “Plant response rating: Ryegrass, Italian” value ([6]; Postemergence, 16 g ai/ha)?
The value was 10.

What about the “Plant response rating: Ryegrass, Italian” value ([6]; Postemergence, 31 g ai/ha) of the same molecule?
The value was 15.

What about the “Plant response rating: Ryegrass, Italian” value ([6]; Postemergence, 62 g ai/ha) of the same molecule?
Its value is 20.

What about the “Plant response rating: Ryegrass, Italian” value ([6]; Postemergence, 125 g ai/ha) of the same molecule?
Its value is 35.

And the “Plant response rating: Ryegrass, Italian” value ([6]; Preemergence, 16 g ai/ha)?
Its value is 0.

And the “Plant response rating: Ryegrass, Italian” value ([6]; Preemergence, 31 g ai/ha)?
Its value is 35.

What about the “Plant response rating: Ryegrass, Italian” value ([6]; Preemergence, 62 g ai/ha) of the same molecule?
The value was 35.

And the “Plant response rating: Ryegrass, Italian” value ([6]; Preemergence, 125 g ai/ha)?
The value was 90.

And the “Plant response rating: Ryegrass, Italian” value ([6]; Preemergence, 250 g ai/ha)?
The value was 98.

What about the “Plant response rating: Ragweed” value ([7]; 16 g ai/ha) of the same molecule?
Its value is 0.

And the “Plant response rating: Ragweed” value ([7]; 31 g ai/ha)?
The value was 0.

What about the “Plant response rating: Ragweed” value ([7]; 62 g ai/ha) of the same molecule?
The value was 30.

What about the “Plant response rating: Ragweed” value ([7]; 125 g ai/ha) of the same molecule?
The value was 35.

What about the “Plant response rating: Ragweed” value ([7]; 250 g ai/ha) of the same molecule?
Its value is 80.

And the “Plant response rating: Cocklebur” value ([8]; 16 g ai/ha)?
Its value is 0.

What about the “Plant response rating: Cocklebur” value ([8]; 31 g ai/ha) of the same molecule?
The value was 0.

And the “Plant response rating: Cocklebur” value ([8]; 62 g ai/ha)?
Its value is 90.

What about the “Plant response rating: Cocklebur” value ([8]; 125 g ai/ha) of the same molecule?
Its value is 90.

What about the “Plant response rating: Dayflower, VA” value ([9]; Postemergence, 8 g ai/ha) of the same molecule?
The value was 10.

What about the “Plant response rating: Dayflower, VA” value ([9]; Postemergence, 16 g ai/ha) of the same molecule?
Its value is 10.

What about the “Plant response rating: Dayflower, VA” value ([9]; Postemergence, 31 g ai/ha) of the same molecule?
Its value is 10.

And the “Plant response rating: Dayflower, VA” value ([9]; Postemergence, 62 g ai/ha)?
The value was 10.

What about the “Plant response rating: Dayflower, VA” value ([9]; Postemergence, 125 g ai/ha) of the same molecule?
The value was 15.

And the “Plant response rating: Dayflower, VA” value ([9]; Preemergence, 16 g ai/ha)?
Its value is 0.

And the “Plant response rating: Dayflower, VA” value ([9]; Preemergence, 31 g ai/ha)?
Its value is 0.

What about the “Plant response rating: Dayflower, VA” value ([9]; Preemergence, 62 g ai/ha) of the same molecule?
Its value is 50.

And the “Plant response rating: Dayflower, VA” value ([9]; Preemergence, 125 g ai/ha)?
The value was 50.

And the “Plant response rating: Dayflower, VA” value ([9]; Preemergence, 250 g ai/ha)?
Its value is 50.

What about the “Plant response rating: Velvetleaf” value ([10]; 16 g ai/ha) of the same molecule?
The value was 15.

And the “Plant response rating: Velvetleaf” value ([10]; 31 g ai/ha)?
The value was 30.

And the “Plant response rating: Velvetleaf” value ([10]; 62 g ai/ha)?
The value was 35.

What about the “Plant response rating: Velvetleaf” value ([10]; 125 g ai/ha) of the same molecule?
Its value is 50.

What about the “Plant response rating: Velvetleaf” value ([10]; 250 g ai/ha) of the same molecule?
The value was 65.

Source: patent publication US9302999B2, “Substituted triazoles as herbicides” (E. I. DU PONT DE NEMOURS AND COMPANY, priority 2012, dated 2016)
